In assay [1] the target is T1, LipDH-mCherry; yeast lipoamide dehydrogenase (Saccharomyces cerevisiae, UniProt P09624).
T1 sequence (P09624 22-499): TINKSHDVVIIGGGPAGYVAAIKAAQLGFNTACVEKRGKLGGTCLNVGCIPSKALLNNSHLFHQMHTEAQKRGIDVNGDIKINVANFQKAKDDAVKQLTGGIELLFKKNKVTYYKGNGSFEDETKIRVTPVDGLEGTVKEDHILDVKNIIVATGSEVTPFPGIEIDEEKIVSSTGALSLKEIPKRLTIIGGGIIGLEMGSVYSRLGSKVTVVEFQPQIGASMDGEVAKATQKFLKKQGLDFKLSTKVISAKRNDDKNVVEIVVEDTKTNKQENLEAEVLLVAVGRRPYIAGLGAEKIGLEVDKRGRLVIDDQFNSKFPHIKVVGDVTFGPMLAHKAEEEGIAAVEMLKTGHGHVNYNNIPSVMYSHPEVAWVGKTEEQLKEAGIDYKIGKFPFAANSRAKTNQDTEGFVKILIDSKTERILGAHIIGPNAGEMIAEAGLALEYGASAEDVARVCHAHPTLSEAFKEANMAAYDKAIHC
Kind of assay: quenching of flavin fluorescence. It is filed as biochemical. The note with it: 1 uM probe, 100 uM NADPH; poor substrate.

Assay [2] has as its target T1, LipDH-mCherry; yeast lipoamide dehydrogenase. Kind of assay: UV-Vis absorbance of purified protein. The note with it: 50 mM phosphate pH 7.5, 1 mM EDTA; bound as purified. The class given is binding.
Assay [3] deals with EcTrxR-mCherry (TrxR-mCherry); E. coli thioredoxin reductase (Escherichia coli, UniProt P0A9P4). Kind of assay: UV-Vis absorbance of purified protein. The class given is binding. The note with it: 50 mM phosphate pH 7.5, 1 mM EDTA; bound as purified.
Sequence of EcTrxR-mCherry (TrxR-mCherry); E. coli thioredoxin reductase (P0A9P4 2-321): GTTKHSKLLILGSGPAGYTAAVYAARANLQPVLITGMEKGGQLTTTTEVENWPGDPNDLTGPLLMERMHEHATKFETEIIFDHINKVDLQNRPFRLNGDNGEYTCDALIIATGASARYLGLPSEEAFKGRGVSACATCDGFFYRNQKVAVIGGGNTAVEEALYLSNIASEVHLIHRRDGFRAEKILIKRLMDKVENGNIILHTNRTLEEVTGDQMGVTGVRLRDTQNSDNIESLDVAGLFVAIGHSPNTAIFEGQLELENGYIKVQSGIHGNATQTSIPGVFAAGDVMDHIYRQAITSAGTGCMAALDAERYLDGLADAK

On to `NC(=O)C1=CN([C@@H]2O[C@H](COP(=O)(O)OP(=O)(O)OC[C@H]3O[C@@H](n4cnc5c(N)ncnc54)[C@H](OP(=O)(O)O)[C@@H]3O)[C@@H](O)[C@H]2O)C=CC1` [NADPH], for which the “quenching of flavin fluorescence (456/520 nm) on reduction” value in assay [1] is reported as “the probe responds slowly to this pyridine nucleotide”.

Consider `Cc1cc2nc3c(=O)[nH]c(=O)nc-3n(C[C@H](O)[C@H](O)[C@H](O)COP(=O)(O)OP(=O)(O)OC[C@H]3O[C@@H](n4cnc5c(N)ncnc54)[C@H](O)[C@@H]3O)c2cc1C` [FAD], for which the “UV-Vis absorbance of purified protein” value in assay [2] was “purified construct contained the expected complement of flavin and mCherry absorbance contributions”; in assay [3], “found to contain the expected complement of flavin and mCherry”.

For the origin of these results see publication PMC5820181 (Biochemistry, 2018).
